One block for each compound: values may come before it.
Tests used:
[1] = target: 20S proteasome; assay: Inhibition of human 20S proteasome chymotrypsin-like activity using Suc-Leu-Leu-Val-Tyr-AMC as fluorogenic peptide pre-incubated for 10 mins with compound followed by substrate addition for 60 mins by spectrofluorimetric analysis; format: protein-complex assay
[2] = system: RPMI-8226; assay: Cytotoxicity against human RPMI-8226 cells assessed as inhibition of cell proliferation incubated for 72 hrs by Cell Titer-Glo luminescence assay; format: functional, cell-based; settings: RPMI-8226, 72 h
[3] = Stability of the compound in stimulated […] fluid at pH 6.8 measured after 4 hrs; format: ADME; settings: simulated intestinal fluid, read-out: Stability
[4] = Stability of the compound in stimulated […] fluid at pH 1.2 measured after 4 hrs; format: ADME; settings: simulated gi fluid, pH 1.2, 4 h
[5] = Stability of the compound in stimulated […] fluid at pH 6.8 measured after 8 hrs; format: ADME; settings: simulated intestinal fluid, read-out: Stability
[6] = Stability of the compound in stimulated […] fluid at pH 1.2 measured after 8 hrs; format: ADME; settings: simulated gi fluid, pH 1.2, 8 h
[7] = Stability of the compound in stimulated […] fluid at pH 6.8 measured after 12 hrs; format: ADME; settings: simulated intestinal fluid, read-out: Stability
[8] = Stability of the compound in stimulated […] fluid at pH 6.8 measured after 1 min; format: ADME; settings: simulated intestinal fluid, read-out: Stability
[9] = Stability of the compound in stimulated […] fluid at pH 1.2 measured after 1 min; format: ADME; settings: simulated gi fluid, pH 1.2, 1 min
[10] = Stability of the compound in stimulated […] fluid at pH 1.2 measured after 12 hrs; format: ADME; settings: simulated gi fluid, pH 1.2, 12 h
[11] = Stability of the compound in stimulated […] fluid at pH 6.8 measured after 2 hrs; format: ADME; settings: simulated intestinal fluid, read-out: Stability
[12] = Stability of the compound in stimulated […] fluid at pH 1.2 measured after 2 hrs; format: ADME; settings: simulated gi fluid, pH 1.2, 2 h
[13] = system: RPMI-8226; assay: Antitumor activity against human RPMI-8226 cells xenografted in Balb/c mouse assessed as tumor growth inhibition at po administration biweekly for 21 days; format: functional, organism-based; settings: time 21.0 day
[14] = Toxicity in Balb/c mouse xenografted with human RPMI-8226 cells assessed as body weight loss at 10 mg/kg,po administrated biweekly for 21 days; format: organism-based; settings: in vivo, 504 h, time 21 day
[15] = Toxicity in Balb/c mouse xenografted with human RPMI-8226 cells assessed as body weight loss at 6 mg/kg,po administrated biweekly for 21 days; format: organism-based; settings: in vivo, 504 h, time 21 day

SMILES: CC(C)C[C@H](NC(=O)CNC(=O)c1cc(Br)ccc1Br)B(O)O
IC50 [1]: 4 nM
IC50 [2]: 14.7 nM

SMILES: CC(C)C[C@H](NC(=O)CNC(=O)c1cc(Cl)ccc1Cl)B1OC2C3CC(C(=O)O)C(O3)C2O1 (some centres not stated)
remaining at 4 h [3]: 19.8%
Stability [4]: 82.49%
remaining at 8 h [5]: 19.6%
Stability [6]: 78.47%
remaining at 12 h [7]: 19.9%
IC50 [1]: 6.3 nM
remaining at 1 min [8]: 21%
Stability [9]: 14.06%
Stability [10]: 83.15%
remaining at 2 h [11]: 23.9%
IC50 [2]: 4.4 nM
Stability [12]: 83.62%

SMILES: CC(C)C[C@H](NC(=O)CNC(=O)c1cc(Cl)ccc1Cl)B(O)O [IXAZOMIB]
remaining at 4 h [3]: 100%
Stability [4]: 100%
Activity [13]: Dose-Dependent Effect
remaining at 8 h [5]: 100%
Stability [6]: 100%
remaining at 12 h [7]: 100%
Activity [14]: Non-Toxic
remaining at 1 min [8]: 12.6%
Stability [9]: 100%
Stability [10]: 100%
remaining at 2 h [11]: 100%
IC50 [2]: 7.4 nM
Activity [15]: Non-Toxic
Stability [12]: 100%

SMILES: COc1ccc(OC)c(C(=O)NCC(=O)N[C@@H](CC(C)C)B(O)O)c1
IC50 [1]: 15.8 nM
IC50 [2]: 57.9 nM

SMILES: CC(C)C[C@H](NC(=O)C1(NC(=O)c2cc(C(F)(F)F)ccc2C(F)(F)F)CCCC1)B(O)O
IC50 [1]: 285 nM

SMILES: CC(C)C[C@H](NC(=O)C(NC(=O)c1cc(C(F)(F)F)ccc1C(F)(F)F)C1CC1)B(O)O (some centres not stated)
IC50 [1]: 5.6 nM
IC50 [2]: 6.7 nM

SMILES: CC(C)C[C@H](NC(=O)C(NC(=O)c1cc(C(F)(F)F)ccc1C(F)(F)F)C1CCCC1)B1OC2C3OC(CC3C(=O)O)C2(C)O1 (some centres not stated)
IC50 [1]: 2.4 nM
IC50 [2]: 13.6 nM

More lines, in order of falling IC50 [1], values ahead:

IC50 [1]: 124 nM
SMILES: Cc1cc(C(=O)NCC(=O)N[C@@H](CC(C)C)B(O)O)no1

IC50 [1]: 20.6 nM
SMILES: CC(C)C[C@H](NC(=O)CNC(=O)c1cc(F)ccc1F)B(O)O
IC50 [2]: 41.5 nM

IC50 [1]: 9.8 nM
SMILES: CC(C)C[C@H](NC(=O)CNC(=O)c1cc(Cl)ccc1Cl)B1OC2CC3C(=O)NC(=O)C3CC2(C)O1 (some centres not stated)
IC50 [2]: 8.7 nM

remaining at 4 h [3]: 91.5%
Stability [4]: 97.62%
remaining at 8 h [5]: 85.7%
Stability [6]: 98.81%
remaining at 12 h [7]: 78.7%
IC50 [1]: 9.6 nM
remaining at 1 min [8]: 90.1%
Stability [9]: 62.06%
Stability [10]: 96.98%
remaining at 2 h [11]: 83.7%
Stability [12]: 98.08%
SMILES: CC(C)C[C@H](NC(=O)CNC(=O)c1cc(Cl)ccc1Cl)B1OC2(C)CCC(C(=O)O)CC2(C)O1 (some centres not stated)
IC50 [2]: 5.3 nM
